“And” between values parts separate entries of the source, which are not always exact repeats. Equal values may be shown once. “Also recorded” adds a separate entry of the source. Read-outs that look alike come from different tables or passages of the source.
What was measured:
[1] = system: J6/JFH-1 HCV (genotype 2a) in Huh 7.5 cells; assay: Infectious genotype 2a HCV cell culture assay (RT-PCR viral load); format: cell-based, hepatitis C virus (HCV); conditions: genotype G2a; for inhibition of J6/JFH-1 HCV replication: 1 μM test concentration; for relative activity / potency versus NTZ: at 1 μM, % of NTZ
Description: (§1) Genotype 2a antiviral assays were conducted as previously described [Broering R. et al., Gut, 59, 1111-1119 (2010)]. […] Cell viability was determined using the Calcein assay kit (Biotium, Inc. Hayward, Calif., USA). The alternate method for measuring cell cytotoxicity was via the Guava Technologies ViaCount assay (Millipore) The ViaCount Assay provides rapid and reliable determinations of viability and total cell count. It distinguishes viable and non-viable cells based on differential permeabilities of two DNA-binding dyes in the Guava ViaCount® Reagent. The nuclear dye stains only nucleated cells, while the viability dye brightly stains dying cells. This combination of dyes enables the Guava ViaCount Assay to distinguish viable, apoptotic, and dead cells. Debris is excluded from results based on negative staining with the nuclear dye.
HCV replication levels were determined by RT-PCR on RNA from cell culture supernatants. J6-infected Huh 7.5 cells were seeded in 12-well plates at a density of 2.0E5 cells/well in 1.5 mL of DMEM supplemented with 10% FBS and 1% Pen/Strep. […] A positive control of IFN-α at concentrations of 10 IU/mL and 50 IU/mL, negative control wells containing mock incubations of DMEM with 1 uL and 10 uL (the same volume of the molecular compounds at 1 uM and 10 uM, respectively) of DMSO was included to rule out nonspecific effects of DMSO on the cells, and J6-infected with only DMEM were used as negative controls. A final control group consisted of un-infected Huh 7.5 cells, plated at the same time and density as the J6-infected cells on a separate plate. 48 hours and 120 hours after incubation with thiazolides, the media was collected and frozen, cells were washed 2× with PBS, and lysed in 500 uL of lysis buffer per well. Following lysis, RNA was extracted from the cells using the RNAqueous-4PCR Kit from Ambion, and the RNA concentration determined using the Nanoprop® machine. Reverse-transcription reactions produced 1.5 μg of cDNA per sample, which was then used for rt-PCR to quantify the HCV viral load in each sample. Analysis of the rt-PCR results generated the fold increases and decreases of the HCV viral load in comparison to untreated J6 cells.

[2] = Secondary HCV replicon cell assay genotype 1b, cytotoxicity (neutral red dye uptake); format: cell-based; conditions: human
Description: (§4) Antiviral activity of test compounds was assessed in a 3-day assay using the stably-expressing HCV replicon cell line, AVA5 (sub-genomic CONI, genotype 1b) [Korba, B. E. et al. Antiviral Res. 77, 56-63 (2008); Blight et al., Science 290, 1972-1974 (2000)] maintained as sub-confluent cultures on 96-well plates as previously described [Okuse et al., Antiviral Research 65, 23-34 (2005)]. Antiviral activity was determined by blot hybridization analysis of intracellular HCV RNA (normalized to the level of cellular B-actin RNA in each culture sample) and cytotoxicity was assessed by neutral red dye uptake after 3 days of treatment. Additional studies were performed using Huh7 cells containing another HCV replicon, H/FL-Neo, a genotype la full length construct [Blight et al., J. Virol. […] For studies involving human serum, standard culture medium (which contains 10% fetal bovine serum) and assay conditions were maintained.

Huh 7.5 cells = assay: Cytotoxicity in Huh 7.5 cells (Calcein / ViaCount assay); format: cell-based
Description: as §1

[3] = Primary HCV replicon cell assay, cytotoxicity (neutral red dye uptake); format: cell-based; conditions: human, 3 days of treatment
Description: as §4

[4] = Secondary HCV replicon cell assay genotype 1a, cytotoxicity (neutral red dye uptake); format: cell-based; conditions: human
Description: as §4

[5] = system: HCV replicon cell line, AVA5 (sub-genomic CONI, genotype 1b); assay: Secondary HCV replicon cell assay genotype 1b, antiviral activity; format: cell-based; conditions: Hepatitis C virus; for EC50: 2-fold depression of intracellular HCV RNA; for EC90: 10-fold depression of intracellular HCV RNA
Description: (§2) Antiviral activity of test compounds was assessed in a 3-day assay using the stably-expressing HCV replicon cell line, AVA5 (sub-genomic CONI, genotype 1b) [Korba, B. E. et al. Antiviral Res. 77, 56-63 (2008); Blight et al., Science 290, 1972-1974 (2000)] maintained as sub-confluent cultures on 96-well plates as previously described [Okuse et al., Antiviral Research 65, 23-34 (2005)]. Antiviral activity was determined by blot hybridization analysis of intracellular HCV RNA (normalized to the level of cellular B-actin RNA in each culture sample) and cytotoxicity was assessed by neutral red dye uptake after 3 days of treatment. Additional studies were performed using Huh7 cells containing another HCV replicon, H/FL-Neo, a genotype la full length construct [Blight et al., J. Virol. 77, 3181-3190 (2003)]. For studies involving human serum, standard culture medium (which contains 10% fetal bovine serum) and assay conditions were maintained.
(§3) EC50, EC90 and CC50 values (±standard deviations [S.D.]) were calculated by linear regression analysis using data combined from all treated cultures (Korba, B. E. et al. Antiviral Res. 77, 56-63 (2008)). […] Selectivity index (S.I.) was calculated as CC50/EC90 for HBV assays and CC50/EC50 for HCV assays.

[6] = system: HCV replicon cell line, AVA5 (sub-genomic CONI, genotype 1b); assay: Primary HCV replicon cell assay, antiviral activity (intracellular HCV RNA, blot hybridization); format: cell-based; conditions: Hepatitis C virus, Ava5, 72 h, 3-day assay; for EC50: 2-fold depression of intracellular HCV RNA; for EC90: 10-fold depression of intracellular HCV RNA
Description: as §2, §3

[7] = system: HCV replicon H/FL-Neo, genotype 1a full length construct, in Huh7 cells; assay: Secondary HCV replicon cell assay genotype 1a, antiviral activity; format: cell-based; conditions: Hepatitis C virus; for EC50: Huh-7, 2-fold depression of intracellular HCV RNA; for EC90: Huh-7, 10-fold depression of intracellular HCV RNA
Description: as §2, §3

[8] = system: HBV virion in 2.2.15 cells; assay: HBV antiviral assay in 2.2.15 cells, virion (VIR) HBV DNA; format: cell-based; conditions: Hepatitis B virus; for EC50: read-out: EC50 (VIR); for EC90: read-out: EC90 (VIR)
Description: (§5) HBV antiviral assays were conducted as previously described [Korba, B. E. et al. Antiviral Res. 77, 56-63 (2008);].

[9] = Cytotoxicity in 2.2.15 cells (neutral red dye uptake); format: cell-based; conditions: human, nine daily doses
Description: Briefly, confluent cultures of 2.2.15 cells were maintained on 96-well flat-bottomed tissue culture plates (confluence in this culture system is required for active, high levels of HBV replication equivalent to that observed in chronically-infected individuals. Cultures were treated with nine consecutive daily doses of the test compounds. HBV DNA levels were assessed by quantitative blot hybridization 24 hr. after the last treatment. Cytotoxicity was assessed by uptake of neutral red dye 24 hr. following the last treatment.

[10] = system: AVA5 HCV replicon cell line; assay: Secondary HCV replicon cell assay genotype 1b, cytotoxicity (neutral red dye uptake); format: cell-based
Description: as §4

[11] = cited from earlier work
[12] = system: HBV replication intermediates in 2.2.15 cells; assay: HBV antiviral assay in 2.2.15 cells, replication intermediates (RI) HBV DNA; format: cell-based; conditions: Hepatitis B virus; for EC50: read-out: EC50 (RI)
Description: as §5

[13] = system: Huh7 cells containing H/FL-Neo replicon; assay: Secondary HCV replicon cell assay genotype 1a, cytotoxicity (neutral red dye uptake); format: cell-based
Description: as §4

[14] = system: AVA5 HCV replicon cell line; assay: Primary HCV replicon cell assay, cytotoxicity (neutral red dye uptake); format: cell-based; conditions: 3 days of treatment
Description: as §4

cytochrome P450 enzymes = conditions: cited from earlier work
[15] = AVA5 HCV replicon cells (sub-genomic CON1)
[16] = AVA5 HCV replicon cells (sub-genomic CON1, genotype 1b)
[17] = HBV virion DNA, 2.2.15 cells, nine daily doses

| Structure (SMILES) | inhibition of J6/JFH-1 HCV replication [1] | relative activity / potency versus NTZ [1] [%] | CC50 at 3 days [2, 15] [nM] | cytotoxic effect in Huh 7.5 cells (Huh 7.5 cells) | CC50 at 3 days [3, 16] [nM] | CC50 at 3 days [4] [nM] | EC50 [5] [nM] | EC90 [5] [nM] | EC50 [6] [nM] | EC90 [6] [nM] | EC50 [7] [nM] | EC90 [7] [nM] | EC50 [8, 17] [nM] | CC50 at 9 days [9] [nM] | further results |
| --- | --- | --- | --- | --- | --- | --- | --- | --- | --- | --- | --- | --- | --- | --- | --- |
| O=C(Nc1cccc(F)c1)c1ccccc1O [Compound 3, N-(3-fluorophenyl)-2-hydroxybenzamide] | shown to inhibit J6/JFH-1HCV replication | 65 | 11000 | None of these compounds showed a cytotoxic effect | > 100000 | 9900 | 600 | 2600 | 820 | 2700 | 420 | 3300 |  |  |  |
| O=C(Nc1cc(C(F)(F)F)ccc1Cl)c1ccccc1O [Compound 41, N-(2-chloro-5-(trifluoromethyl)phenyl)-2-hydroxybenzamide] |  |  | 790 |  | 330 | 680 | 45 | 177 | 5 | 32 | 55 | 244 | 3700 | > 100000 | EC90 [8, 17]: 13000 nM |
| COC(=O)c1ccc(NC(=O)c2ccccc2OC(C)=O)cc1 [Compound 44, methyl 4-(2-acetoxybenzamido)benzoate] | shown to inhibit J6/JFH-1HCV replication | 53 | 6800 | None of these compounds showed a cytotoxic effect | 4400 | 7500 | 350 | 4500 | 58 | 461 | 300 | 5100 |  |  |  |
| CC(=O)Oc1ccccc1C(=O)Nc1ncc([N+](=O)[O-])s1 [NTZ, nitazoxanide, reference compound] | demonstrated efficacy with regards to HCV replication; also recorded: shown to inhibit J6/JFH-1HCV replication |  |  | without being cytotoxic; also recorded: None of these compounds showed a cytotoxic effect |  |  | 250 | 950 | 210 | 977 | 330 | 1100 | 120 | > 100000 | CC50 [10]: 35000 nM; detection in plasma ([11]; after oral 500 mg NTZ tablet): not detected in plasma; EC50 ([12]; HBV replication intermediates, 2.2.15 cells, nine daily doses): 590 nM; CC50 at 3 days [3]: 31000 nM; CC50 [13]: 49000 nM |
| O=C(Nc1ncc([N+](=O)[O-])s1)c1ccccc1O [TIZ, tizoxanide, reference compound] |  |  |  |  |  | 27000 | 190 | 920 | 151 | 813 | 230 | 1000 |  | > 100000 | CC50 at 3 days [2]: 28000 nM; fraction of oral dose excreted in feces as TIZ ([11]; oral dose of NTZ): Approximately two-thirds; maximum serum concentration of TIZ ([11]; oral, one 500 mg NTZ tablet (Alinia) with food): approximately 10 μg/mL and ~37 μM; elimination half-life from plasma ([11]; plasma): approximately 1.5 hours; EC50 [8]: 150 nM; EC90 [8]: 580 nM; EC50 [12]: 460 nM; EC90 ([12]; read-out: EC90 (RI)): 1200 nM; CC50 [14]: 15000 nM; inhibition of cytochrome P450 enzymes (cytochrome P450 enzymes): does not inhibit |

— patent US20120108592A1, “PHARMACEUTICAL COMPOSITIONS AND METHODS OF USE OF SALICYLANILIDES FOR TREATMENT OF HEPATITIS VIRUSES” (priority 2010, published 2012)
